Laboratory results reported in ChEMBL document CHEMBL3734721 (J Med Chem, 2015).

Assays:
[1] = Fraction unbound in human plasma at 5 uM after 4.5 hrs by LC-MS/MS analysis; assay type: ADME, cell-free
[2] = molecular target: T1, Cholecystokinin receptor type A (Homo sapiens, UniProt P32238); assay: Antagonist activity at human wild-type CCKA receptor expressed in CHO-K1 cells assessed as CCK8-induced calcium by FDSS assay; assay type: functional, cell-based
T1 sequence (P32238 whole entry): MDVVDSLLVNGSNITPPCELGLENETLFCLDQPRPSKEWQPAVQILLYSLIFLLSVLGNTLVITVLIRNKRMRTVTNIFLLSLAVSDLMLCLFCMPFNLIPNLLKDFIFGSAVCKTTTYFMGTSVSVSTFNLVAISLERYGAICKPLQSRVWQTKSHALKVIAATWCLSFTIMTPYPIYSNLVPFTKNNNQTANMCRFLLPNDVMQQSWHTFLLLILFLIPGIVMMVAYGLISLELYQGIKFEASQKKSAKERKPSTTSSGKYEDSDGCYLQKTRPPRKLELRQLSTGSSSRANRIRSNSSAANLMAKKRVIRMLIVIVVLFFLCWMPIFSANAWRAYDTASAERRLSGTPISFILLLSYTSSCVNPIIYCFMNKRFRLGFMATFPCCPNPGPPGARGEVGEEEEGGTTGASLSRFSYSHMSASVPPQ

[3] = molecular target: T2, 5-hydroxytryptamine receptor 2A (Homo sapiens, UniProt P28223); assay: Antagonist activity at human 5-HT2A receptor expressed in CHO-K1 cells assessed as seretonin-induced calcium level by FDSS assay; assay type: functional, cell-based
[4] = molecular target: T3, 5-hydroxytryptamine receptor 2C (Homo sapiens, UniProt P28335); assay: Agonist activity at human 5-HT2C receptor expressed in CHO-K1 cells assessed as calcium level by FDSS assay; assay type: functional, cell-based
T3 sequence (P28335 whole entry): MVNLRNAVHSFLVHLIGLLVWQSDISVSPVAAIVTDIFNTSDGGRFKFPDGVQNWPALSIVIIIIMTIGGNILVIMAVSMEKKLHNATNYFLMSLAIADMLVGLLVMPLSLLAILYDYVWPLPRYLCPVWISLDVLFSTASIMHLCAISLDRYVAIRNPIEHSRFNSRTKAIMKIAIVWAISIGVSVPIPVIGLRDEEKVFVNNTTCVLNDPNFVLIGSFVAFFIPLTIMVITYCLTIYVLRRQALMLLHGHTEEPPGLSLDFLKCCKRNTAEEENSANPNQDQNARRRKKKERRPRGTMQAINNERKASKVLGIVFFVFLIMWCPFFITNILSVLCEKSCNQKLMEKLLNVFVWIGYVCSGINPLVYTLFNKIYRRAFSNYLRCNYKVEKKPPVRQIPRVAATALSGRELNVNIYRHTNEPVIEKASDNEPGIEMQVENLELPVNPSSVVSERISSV

[5] = molecular target: T4, Alpha-2C adrenergic receptor (Homo sapiens, UniProt P18825); assay: Agonist activity at human wild-type alpha 2C receptor expressed in CHO-K1 cells assessed as cAMP level by HTRF assay; assay type: functional, cell-based
T4 sequence (P18825 whole entry): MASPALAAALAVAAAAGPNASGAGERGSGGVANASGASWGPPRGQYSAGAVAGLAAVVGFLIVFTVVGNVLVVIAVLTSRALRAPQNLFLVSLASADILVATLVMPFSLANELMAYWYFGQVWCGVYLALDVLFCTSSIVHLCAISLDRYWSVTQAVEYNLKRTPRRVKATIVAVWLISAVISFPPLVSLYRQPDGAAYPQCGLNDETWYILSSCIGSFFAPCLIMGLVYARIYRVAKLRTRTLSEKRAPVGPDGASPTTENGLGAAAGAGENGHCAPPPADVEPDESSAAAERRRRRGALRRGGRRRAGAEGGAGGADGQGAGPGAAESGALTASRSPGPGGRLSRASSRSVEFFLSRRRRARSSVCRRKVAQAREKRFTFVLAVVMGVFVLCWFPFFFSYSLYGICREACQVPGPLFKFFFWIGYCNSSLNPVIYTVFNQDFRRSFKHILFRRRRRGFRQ

[6] = molecular target: T5, Muscarinic acetylcholine receptor M1 (Homo sapiens, UniProt P11229); assay: Antagonist activity at human wild-type M1 receptor expressed in CHO-K1 cells assessed as acetylcholine-induced calcium by FDSS assay; assay type: functional, cell-based
T5 sequence (P11229 whole entry): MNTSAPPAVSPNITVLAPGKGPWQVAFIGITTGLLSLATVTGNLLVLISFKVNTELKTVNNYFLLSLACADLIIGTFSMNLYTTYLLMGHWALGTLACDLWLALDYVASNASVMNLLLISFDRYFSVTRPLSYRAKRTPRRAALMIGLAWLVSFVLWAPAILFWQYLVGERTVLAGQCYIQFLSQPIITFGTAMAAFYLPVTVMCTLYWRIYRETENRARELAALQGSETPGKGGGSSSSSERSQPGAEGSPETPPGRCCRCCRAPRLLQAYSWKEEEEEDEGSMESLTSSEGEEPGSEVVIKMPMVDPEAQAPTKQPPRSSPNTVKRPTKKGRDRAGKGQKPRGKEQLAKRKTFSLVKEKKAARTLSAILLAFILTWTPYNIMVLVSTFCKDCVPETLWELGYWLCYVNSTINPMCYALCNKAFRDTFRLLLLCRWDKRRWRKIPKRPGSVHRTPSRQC

[7] = molecular target: 5-hydroxytryptamine receptor 7 (Homo sapiens, UniProt P34969); assay: Antagonist activity at human wild-type 5-HT7 receptor expressed in HEK cells assessed as seretonin-induced cAMP by HTRF assay; assay type: functional, cell-based, HEK293
Endothelin-1 receptor = molecular target: T6, Endothelin-1 receptor (Homo sapiens, UniProt P25101); assay: Agonist activity at human wild-type ETA receptor expressed in CHO-K1 cells assessed as calcium level by HTRF assay; assay type: functional, cell-based
T6 sequence (P25101 whole entry): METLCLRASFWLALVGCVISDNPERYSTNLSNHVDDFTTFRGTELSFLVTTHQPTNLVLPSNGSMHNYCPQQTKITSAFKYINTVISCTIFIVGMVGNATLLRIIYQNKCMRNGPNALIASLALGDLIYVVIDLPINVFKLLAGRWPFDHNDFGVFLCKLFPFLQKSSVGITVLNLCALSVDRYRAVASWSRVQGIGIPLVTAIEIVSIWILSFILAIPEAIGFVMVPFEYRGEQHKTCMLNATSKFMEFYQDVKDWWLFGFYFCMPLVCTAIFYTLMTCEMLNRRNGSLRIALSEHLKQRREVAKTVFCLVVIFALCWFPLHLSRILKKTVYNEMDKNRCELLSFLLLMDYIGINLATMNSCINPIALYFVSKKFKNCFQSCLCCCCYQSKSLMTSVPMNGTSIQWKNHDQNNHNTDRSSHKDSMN

[8] = molecular target: T2, 5-hydroxytryptamine receptor 2A; assay: Agonist activity at human 5-HT2A receptor expressed in CHO-K1 cells assessed as calcium level by FDSS assay; assay type: functional, cell-based
Adenosine receptor A2a [9] = molecular target: T7, Adenosine receptor A2a (Homo sapiens, UniProt P29274); assay: Antagonist activity at human wild-type A2A receptor expressed in CHO-K1 cells assessed as NECA-induced cAMP by HTRF assay; assay type: functional, cell-based
Adenosine receptor A2a [10] = molecular target: T7, Adenosine receptor A2a; assay: Agonist activity at human wild-type A2A receptor expressed in CHO-K1 cells assessed as cAMP level by HTRF assay; assay type: functional, cell-based
Cytochrome P450 3A4 = Cytochrome P450 3A4 (Homo sapiens, UniProt P08684); assay: Inhibition of human CYP3A4 by LC-MS analysis; assay type: ADME
Chain of Cytochrome P450 3A4 (P08684 whole entry): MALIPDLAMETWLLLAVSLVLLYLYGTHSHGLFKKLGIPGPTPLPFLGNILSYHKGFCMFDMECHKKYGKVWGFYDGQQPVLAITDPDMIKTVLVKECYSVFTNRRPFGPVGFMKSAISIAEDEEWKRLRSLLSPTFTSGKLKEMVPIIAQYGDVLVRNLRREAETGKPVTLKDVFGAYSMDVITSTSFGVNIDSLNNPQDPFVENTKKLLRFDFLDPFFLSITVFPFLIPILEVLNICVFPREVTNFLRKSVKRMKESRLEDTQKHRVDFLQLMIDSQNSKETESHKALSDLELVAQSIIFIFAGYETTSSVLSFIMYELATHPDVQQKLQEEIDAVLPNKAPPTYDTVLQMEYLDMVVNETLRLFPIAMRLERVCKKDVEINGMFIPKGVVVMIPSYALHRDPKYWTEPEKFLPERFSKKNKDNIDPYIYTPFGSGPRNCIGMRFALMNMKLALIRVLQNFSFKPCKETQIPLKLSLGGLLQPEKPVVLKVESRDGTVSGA

T7 sequence (P29274 whole entry): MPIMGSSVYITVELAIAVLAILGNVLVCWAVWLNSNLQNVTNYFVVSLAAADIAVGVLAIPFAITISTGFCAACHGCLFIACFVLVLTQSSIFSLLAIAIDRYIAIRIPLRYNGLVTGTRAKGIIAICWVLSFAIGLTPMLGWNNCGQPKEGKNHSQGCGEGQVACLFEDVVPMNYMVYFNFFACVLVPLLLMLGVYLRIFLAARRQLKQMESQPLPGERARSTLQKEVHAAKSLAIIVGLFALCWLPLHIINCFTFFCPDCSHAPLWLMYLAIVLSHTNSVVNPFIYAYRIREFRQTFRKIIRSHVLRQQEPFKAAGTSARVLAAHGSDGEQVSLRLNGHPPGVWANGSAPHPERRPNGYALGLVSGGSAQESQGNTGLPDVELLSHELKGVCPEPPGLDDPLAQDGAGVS
T2 sequence (P28223 whole entry): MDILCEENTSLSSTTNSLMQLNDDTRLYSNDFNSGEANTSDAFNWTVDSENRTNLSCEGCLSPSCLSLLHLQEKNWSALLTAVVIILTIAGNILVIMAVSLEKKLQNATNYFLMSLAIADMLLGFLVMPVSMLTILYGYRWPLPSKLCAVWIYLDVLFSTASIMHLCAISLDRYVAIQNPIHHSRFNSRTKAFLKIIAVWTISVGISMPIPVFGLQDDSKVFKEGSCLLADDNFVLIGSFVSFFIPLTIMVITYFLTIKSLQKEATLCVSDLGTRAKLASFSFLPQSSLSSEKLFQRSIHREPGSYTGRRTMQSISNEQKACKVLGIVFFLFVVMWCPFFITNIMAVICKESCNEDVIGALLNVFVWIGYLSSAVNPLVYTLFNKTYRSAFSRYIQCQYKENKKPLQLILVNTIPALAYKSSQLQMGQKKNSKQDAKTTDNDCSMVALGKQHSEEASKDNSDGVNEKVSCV
Chain of 5-hydroxytryptamine receptor 7 (P34969 whole entry): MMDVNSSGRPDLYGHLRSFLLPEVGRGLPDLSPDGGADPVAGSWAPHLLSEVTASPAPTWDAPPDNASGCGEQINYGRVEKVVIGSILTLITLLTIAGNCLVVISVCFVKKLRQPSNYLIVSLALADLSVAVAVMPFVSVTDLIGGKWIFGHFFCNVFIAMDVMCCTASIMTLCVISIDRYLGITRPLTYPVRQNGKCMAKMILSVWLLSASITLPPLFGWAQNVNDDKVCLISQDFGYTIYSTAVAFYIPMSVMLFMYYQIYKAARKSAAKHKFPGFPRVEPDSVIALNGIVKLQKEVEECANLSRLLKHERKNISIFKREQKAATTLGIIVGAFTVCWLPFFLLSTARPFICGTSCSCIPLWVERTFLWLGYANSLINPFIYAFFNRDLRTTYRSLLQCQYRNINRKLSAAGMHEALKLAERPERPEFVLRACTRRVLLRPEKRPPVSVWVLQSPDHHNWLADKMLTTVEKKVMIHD

Row | Compound | fraction unbound at 4.5 h, 5 µM [1] | IC50 [2] | IC50 [3] | EC50 [4] | EC50 [5] | IC50 [6] | IC50 [7] | EC50 (Endothelin-1 receptor) | EC50 [8] | IC50 (Adenosine receptor A2a [9]) | EC50 (Adenosine receptor A2a [10]) | IC50 (Cytochrome P450 3A4)
1 | CB1C=Cc2c(cccc2OCC(O)CN(C)C)N1 (centres undefined) | 0.367 | > 5.01 µM | > 5.01 µM | > 5.01 µM | > 5.01 µM | > 5.01 µM | > 5.01 µM | > 5.01 µM | > 5.01 µM | > 5.01 µM | > 5.01 µM | > 10 µM
2 | CB1C=Cc2cccc(OCC(O)CNC(C)C)c2N1 (centres undefined) | 0.179 | > 5.01 µM | > 5.01 µM | > 5.01 µM | > 5.01 µM | > 5.01 µM | > 5.01 µM | > 5.01 µM | > 5.01 µM | > 5.01 µM | > 5.01 µM | > 10 µM
